# Assay results reported in paper PMC9830863, “Aspergillus Niger thermostable Cytosine deaminase-dextran conjugates with enhanced structure stability, proteolytic resistance, and Antiproliferative activity” (BMC Microbiology, 2023).
# Read-outs that look alike come from different tables or passages of the source.
# Tests used:
# Cytosine deaminase (CDA) [1] = details: read-out: Free CDA / Km; free enzyme; Tris-HCl 50 mM pH 7.0, 37 °C
# Cytosine deaminase (CDA) [2] = details: read-out: Free CDA / Km; free enzyme; Tris-HCl 50 mM pH 7.0, 37 °C; remark: listed apart in the source
# From the text: deamination, released 5-fluorouracil on Cytosine deaminase (CDA)
Km (Cytosine deaminase (CDA) [1]),Km (Cytosine deaminase (CDA) [2]),Structure (SMILES)
360 µM,,Nc1cc[nH]c(=O)n1 [Cytosine]
,220 µM,Nc1nc(=O)[nH]cc1F [5-fluorocytosine]
